From patent publication EP0802184B1, “N-Benzyl-2-phenylindoles as estrogenic agents” (Wyeth, priority 1996, dated 1997)

Tests used:
Ishikawa cells = experiment: Ishikawa Cell Alkaline Phosphatase Assay; assay type: cell-based, human; conditions: for % Activation (Compound + 1 nM 17β-estradiol): 10^-6 M compound + 10^-9 M 17β-estradiol; for % Activation (Compound + 1 nM 17β-estradiol) / % Activation: 48 h; for % Activation: compound alone, percent of response related to 1 nM 17β-estradiol
Procedure: Cells were treated for 48 h prior to assay. […] Sample population for at each dose was n=8. […] Plates are placed at -80°C for a minimum of 15 minutes. Plates are thawed at 37°C followed by the addition of 150μL of 0.1 M Tris-HCl, pH 9.8, containing 4 mM para-nitrophenylphosphate (pNPP) to each well (final concentration, 3 mM pNPP). Absorbance and slope calculations were made using the […] Application program (Bio-Tek Instruments, Inc., Winooski, VT). […] Various compounds were assayed for estrogenic activity by the alkaline phosphatase method and corresponding ED50 values (95% C.I.) were calculated. The four listed in the following were used as reference standards: A description of such methods is provided by Holinka, […]., Kuramoto, H. and Gurpide, E. (1986) Effects of steroid hormones and antisteroids on alkaline phosphatase activity in human endometrial cancer cells (Ishikawa Line). Cancer Research, 46:2771-2774, and by […]. and by […] simple and sensitive microtiter plate estrogen bioassay based on stimulation alkaline phosphatase in Ishikawa cells; […] Endocrinology, 6:2757-2762.

estrogen receptor [1] = target: T1, estrogen receptor (Homo sapiens, UniProt P03372); experiment: 2X VIT ERE Transfection Assay (Infection Luciferase Assay); assay type: cell-based; conditions: 24 h; for % Activation with 1 nM 17β-estradiol: 1 uM compound + 1 nM 17β-estradiol (test for estrogen antagonism); for % Activation: compound alone (1 uM), compared to 17β-estradiol
T1 sequence (P03372 1-595): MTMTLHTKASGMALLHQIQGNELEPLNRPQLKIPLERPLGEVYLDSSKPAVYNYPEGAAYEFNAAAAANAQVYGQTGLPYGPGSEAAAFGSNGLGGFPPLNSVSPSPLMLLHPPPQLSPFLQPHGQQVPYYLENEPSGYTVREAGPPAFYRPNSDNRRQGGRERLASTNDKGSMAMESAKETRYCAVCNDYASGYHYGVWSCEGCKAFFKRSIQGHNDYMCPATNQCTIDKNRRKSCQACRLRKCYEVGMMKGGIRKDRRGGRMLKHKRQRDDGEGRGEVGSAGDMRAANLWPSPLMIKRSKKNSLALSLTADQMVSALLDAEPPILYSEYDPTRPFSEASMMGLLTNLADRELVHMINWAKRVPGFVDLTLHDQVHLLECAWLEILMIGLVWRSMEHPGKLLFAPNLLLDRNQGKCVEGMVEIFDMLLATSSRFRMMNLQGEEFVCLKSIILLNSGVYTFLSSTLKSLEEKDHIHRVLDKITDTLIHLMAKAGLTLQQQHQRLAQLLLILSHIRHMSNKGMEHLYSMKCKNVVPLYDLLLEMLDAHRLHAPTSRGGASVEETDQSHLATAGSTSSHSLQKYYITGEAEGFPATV
Procedure: Chinese Hamster Ovary cells (CHO) which had been stably transfected with the human estrogen receptor were maintained in DMEM + 10% fetal bovine serum (FBS). 48h prior to treatment the growth medium was replaced with DMEM lacking phenol red + 10% dextran coated charcoal stripped FBS (treatment medium). Cells were plated at a density of 5000 cells/well in 96-well plates containing 200 µL of medium/well.
Reporter DNA (Promega plasmid pGL2 containing two tandem copies of the vitellogenin ERE in front of the minimal thymidine kinase promoter driving the luciferase gene) was combined with the B-galactosidase expression plasmid pCH110 (Pharmacia) and carrier DNA (pTZ18U) in the following ratio: • 10uG of reporter DNA • 5uG of pCH110DNA • 5 uG of pTZ18U • 20 uG of DNA/1 mL of transfection solution
20 uL of this mixture was added to each well of cells and remained on the cells for 16 h. […] Each treatment condition was performed on 8 wells (n=8) which were incubated for 24 h prior to the luciferase assay.
After removing the PBS, 25 uL of Promega lysis buffer was added to each well and allowed to stand at room temperature for 15 min, followed by 15 min at -80°C and 15 min at 37°C. 20 uL of lysate was transferred to an opaque 96 well plate for luciferase activity evaluation and the remaining lysate (5 uL) was used for the B-galactosidase activity evaluation (normalize transfection). The luciferan substrate (Promega) was added in 100 uL aliquots to each well automatically by the luminometer and the light produced (relative light units) was read 10 seconds after addition.
To the remaining 5 uL of lysate 45 uL of PBS was added. Then 50 uL of Promega B-galactosidase 2X assay buffer was added, mixed well and incubated at 37°C for 1 hour. A plate containing a standard curve (0.1 to 1.5 milliunits in triplicate) was set up for each experimental run. The plates were analyzed on a Molecular Devices spectrophotometric plate reader at 410 nm. The optical densities for the unknown were converted to milliunits of activity by mathematical extrapolation from the standard curve.
The luciferase data was generated as relative light units (RLUs) accumulated during a 10 second measurement and automatically transferred to a JMP (SAS Inc) file where background RLUs were subtracted. The B-galactosidase values were automatically imported into the file and these values were divided into the RLUs to normalize the data. The mean and standard deviations were determined from a n=8 for each treatment. […] These techniques are described by Tzukerman, M.T., Esty, A., Santiso-Mere, D., Danielian, P., Parker, M.G., Stein, R.B., Pike, J.W. and McDonnel, D.P. (1994). Human estrogen receptor transactivational capacity was determined by both cellular and promoter context and mediated by two functionally distinct intramolecular regions (see Molecular Endocrinology, 8:21-30).

estrogen receptor [2] = target: T1, estrogen receptor; experiment: In vitro estrogen receptor binding assay (competition with [3H]-17β-estradiol); parameters: expressed in transfected cells; host or cells: CHO cells (ribosome-free cytosol); conditions: relative to 17β-estradiol=100; cytosol of CHO cells overexpressing the estrogen receptor
Procedure: CHO cells overexpressing the estrogen receptor were grown in 150 mm^2 dishes in DMEM + 10% dextran coated charcoal, stripped fetal bovine serum. The plates were washed twice with PBS and once with 10mM Tris-HCl, pH 7.4, 1mM EDTA. Cells were harvested by scraping the surface and then the cell suspension was placed on ice. Cells were disrupted with a hand-held motorized tissue grinder using two, 10-second bursts. The crude preparation was centrifuged at 12,000g for 20 minutes followed by a 60 minute spin at 100,000g to produce a ribosome free cytosol. The cytosol was then frozen and stored at -80°C. Protein concentration of the cytosol was estimated using the BCA assay with reference standard protein.
100uG/100uL of the receptor preparation was aliquoted per well. […] The plate was incubated at room temperature for 2.5 h. At the end of this incubation period 150 uL of ice-cold dextran coated charcoal (5% activated charcoal coated with 0.05% 69K dextran) was added to each well and the plate was immediately centrifuged at 99g for 5 minutes at 4°C. 200 uL of the supernatant solution was then removed for scintillation counting. Samples were counted to 2% or 10 minutes, whichever occurs first. […] Also, wells containing radioactivity but no cytosol were processed with charcoal to estimate unremovable DPM of [^3H]
Counts per minute (CPM) of radioactivity were automatically converted to disintegrated per minute (DPM) by the Beckman LS 7500 Scintillation Counter using a set of quenched standards to generate a H# for each sample.
For the generation of IC50 curves, % binding is plotted vs compound. […] For a description of these methods, see Hulme, E.C., ed. 1992. Receptor-Ligand Interactions: A Practical Approach. IRL Press, New York.(see especially chapter 8).

Structure (SMILES): C[C@]12CC[C@@H]3c4ccc(O)cc4CC[C@H]3[C@@H]1CC[C@H]2O [17α-estradiol, reference compound]
- EC50 (Ishikawa cells; Ishikawa cells, reference standards, read-out: ED50 values (95% C.I.), estrogenic activity by the alkaline phosphatase method): 1.42 nM

Structure (SMILES): CCN(CC)C(=O)/C=C/c1ccc(Cn2c(-c3ccc(O)cc3)c(C)c3cc(O)ccc32)cc1 [Example 7, (E)-N, N-Diethyl-3-{4-[5-hydroxy-2-(4-hydroxy-phenyl)-3-methyl-indol-1-ylmethyl]-phenyl}-acrylamide]
- % Activation with 1 nM 17β-estradiol (estrogen receptor [1]): 8%
- % Activation (estrogen receptor [1]): 4%
- % Activation (Compound + 1 nM 17β-estradiol) (Ishikawa cells): 9%
- % Activation (Ishikawa cells): 1%
- Estrogen Receptor Affinity (reported as RBA: 17β-estradiol=100) (estrogen receptor [2]): 42

Structure (SMILES): Cc1c(-c2ccc(O)cc2)n(Cc2ccc(/C=C/C(=O)NC(C)(C)C)cc2)c2ccc(O)cc12 [Example 8, 1(E)-N-tert-butyl-3-{4-[5-hydroxy-2-(4-hydroxy-phenyl)-3-methyl-indol-1-ylmethyl]-phenyl}-acrylamide]
- % Activation with 1 nM 17β-estradiol (estrogen receptor [1]): 78%
- % Activation (estrogen receptor [1]): 6%
- % Activation (Compound + 1 nM 17β-estradiol) (Ishikawa cells): 22%
- % Activation (Ishikawa cells): 10%
- Estrogen Receptor Affinity (reported as RBA: 17β-estradiol=100) (estrogen receptor [2]): 40

Structure (SMILES): Cc1c(-c2ccc(O)cc2)n(Cc2ccc(/C=C/C(=O)N3CCCC3)cc2)c2ccc(O)cc12 [Example 9, (E)-Pyrrolidino-3-{4-[5-hydroxy-2-(4-hydroxy-phenyl)-3-methyl-indol-1-ylmethyl]-phenyl}-acrylamide]
- % Activation with 1 nM 17β-estradiol (estrogen receptor [1]): 8%
- % Activation (estrogen receptor [1]): 6%
- % Activation (Compound + 1 nM 17β-estradiol) (Ishikawa cells): 11%
- % Activation (Ishikawa cells): 3%

Structure (SMILES): Cc1c(-c2ccc(O)cc2)n(Cc2ccc(/C=C/C(=O)N(C)C)cc2)c2ccc(O)cc12 [Example 10, (E)-N, N-Dimethyl-3-{4-[5-hydroxy-2-(4-hydroxy-phenyl)-3-methyl-indol-1-ylmethyl]-phenyl}-acrylamide]
- % Activation with 1 nM 17β-estradiol (estrogen receptor [1]): 2%
- % Activation (estrogen receptor [1]): 1%
- % Activation (Compound + 1 nM 17β-estradiol) (Ishikawa cells): 19%
- % Activation (Ishikawa cells): 6%
- Estrogen Receptor Affinity (reported as RBA: 17β-estradiol=100) (estrogen receptor [2]): 20

Structure (SMILES): CCCCN(CCCC)C(=O)/C=C/c1ccc(Cn2c(-c3ccc(O)cc3)c(C)c3cc(O)ccc32)cc1 [Example 11, (E)-N, N-Dibutyl-3-{4-[5-hydroxy-2-(4-hydroxy-phenyl)-3-methyl-indol-1-ylmethyl]-phenyl}-acrylamide]
- % Activation with 1 nM 17β-estradiol (estrogen receptor [1]): 12%
- % Activation (estrogen receptor [1]): 8%
- % Activation (Compound + 1 nM 17β-estradiol) (Ishikawa cells): 11%
- % Activation (Ishikawa cells): 6%
- Estrogen Receptor Affinity (reported as RBA: 17β-estradiol=100) (estrogen receptor [2]): 80

Structure (SMILES): CCCCN(C)C(=O)/C=C/c1ccc(Cn2c(-c3ccc(O)cc3)c(C)c3cc(O)ccc32)cc1 [Example 12, (E)-N-Butyl, N'-methyl-3-{4-[5-hydroxy-2-(4-hydroxy-phenyl)-3-methyl-indol-1-ylmethyl]-phenyl}-acrylamide]
- % Activation with 1 nM 17β-estradiol (estrogen receptor [1]): 24%
- % Activation (estrogen receptor [1]): 13%
- % Activation (Compound + 1 nM 17β-estradiol) (Ishikawa cells): 16%
- % Activation (Ishikawa cells): 7%
- Estrogen Receptor Affinity (reported as RBA: 17β-estradiol=100) (estrogen receptor [2]): 114

Structure (SMILES): Cc1c(-c2ccc(O)cc2)n(Cc2ccc(/C=C/C(=O)N3CCOCC3)cc2)c2ccc(O)cc12 [Example 13]
- % Activation with 1 nM 17β-estradiol (estrogen receptor [1]): 17%
- % Activation (estrogen receptor [1]): 8%
- % Activation (Compound + 1 nM 17β-estradiol) (Ishikawa cells): 9%
- % Activation (Ishikawa cells): 7%

Structure (SMILES): Cc1c(-c2ccc(O)cc2)n(Cc2ccc(/C=C/C(N)=O)cc2)c2ccc(O)cc12 [Example 14, (E)-3-{4-[5-hydroxy-2-(4-hydroxy-phenyl)-3-methyl-indol-1-ylmethyl]-phenyl}-acrylamide]
- % Activation with 1 nM 17β-estradiol (estrogen receptor [1]): 57%
- % Activation (estrogen receptor [1]): 19%
- % Activation (Compound + 1 nM 17β-estradiol) (Ishikawa cells): 14%
- % Activation (Ishikawa cells): 2%
- Estrogen Receptor Affinity (reported as RBA: 17β-estradiol=100) (estrogen receptor [2]): 32

Structure (SMILES): O=C(c1ccc(OCCN2CCCCC2)cc1)c1c(-c2ccc(O)cc2)sc2cc(O)ccc12 [raloxifene, reference compound]
- % Activation (Compound + 1 nM 17β-estradiol) (Ishikawa cells): 5%

Structure (SMILES): CC/C(=C(\c1ccccc1)c1ccc(OCCN(C)C)cc1)c1ccccc1 [tamoxifen, reference compound]
- % Activation (Compound + 1 nM 17β-estradiol) (Ishikawa cells): 45%
